Data taken from patent publication US20020137154A1, “Methods for improving cell growth and alcohol production during fermentation” (priority 2000, published 2002).

Assays:
Assay type in all cases: cell-based
[1] = test system: recombinant Escherichia coli KO11; assay: Batch fermentation of E. coli KO11 in 1% CSL medium and glucose with nutrient additives: ethanol production and cell growth; details: additive 2 g/L unless indicated; for activity at 2000 µg/mL: Escherichia coli
Protocol: (§1) Two types of media were tested: 1% CSL and Luria broth (LB). Each contained 97 g of either xylose or glucose per liter. Luria Broth consists of, per liter: 10 g Difco® Tryptone, 5 g Difco® Yeast Extract and 5 g NaCl. The 1% CSL medium consists of Corn Steep Liquor (1% w/v) plus mineral salts (mineral salts per liter: 1 g of KH2PO4. 0.5 g of K2HPO4, 3.1 g of (NH4)2SO4, 0.4 g of MgCl2·6H2), and 20 mg FeCl3·6H2O).
(§2) Luria Broth was prepared by autoclaving a 2× nutrient stock containing, per liter: 20 g Difco® Tryptone, 10 g Difo® Yeast Extract, and 10 g NaCl. Sugars (xylose or glucose) were autoclaved separately. A 1% CSL medium was prepared as follows: Commercial Corn Steep Liquor (CSL; 50% dry weight/50% water) was diluted with tap water to make a 20X stock containing 100 g dry weight of Corn Steep Liquor/L and was adjusted to pH 7.2 with NaOH (50%). After sterilization by autoclaving, the 20X CSL stock was clarified by centrifugation at 5000×g for 10 minutes. Magnesium was added as a 100× stock solution (40 g/L MgCl2·6H2O). Iron was added as a 1000× stock solution made by dissolving 20 g FeCl3·6H2O in 175 mL of HCl and adjusting to 1 L with sterile water. Nitrogen, sulfur and phosphorus were added using a 20× stock solution containing the following (per liter): 20 g of KH2PO4, 10 g of K2HPO4 and 62 g of (NH4)2SO4. Stock solutions containing minerals were sterilized separately by autoclaving. Final media was prepared by adding 750 mL of water to 1 L bottle containing 100 g of xylose or glucose.
(§3) Inocula were grown in same media used for fermentation and were prepared as follows. Three colonies from a fresh plate were used to inoculate seed cultures: 250-mL flask containing 100 mL medium. These cultures were grown with agitation (120 rpm) for 12-16 hours at 35° C. to a final OD550nm of approximately 2.0-2.5. Cells were harvested by centrifugation at 5000×g for 5 minutes, and resuspended in fresh media to an OD550nm of 0.1. The resulting suspension was distributed into 500-mL beakers containing 345 ml each of fermentation medium. Acetaldehyde was added as indicated. Batch fermentations (35° C., 100 rpm) were maintained at pH 6.5 by the automatic addition of 2N KOH. Cell mass, ethanol, and base addition (2N KOH) were recorded during 96 hours of incubation.
(§4) Equivalent amounts of distilled water were added instead of the acetaldehyde in control experiments.
(§5) Additives (e.g., as listed in Table 1) were dissolved in 5 mL di-H2O. Solutions with pH lower than 5 were neutralized to pH 6.5 with 2N KOH. Nutritional supplements were then filter-sterilized (0.45 μm filter disk) directly into the fermentation vessel containing the culture. The final concentration of all additives in the culture medium was 2 g/L unless otherwise indicated.
(§6) Cell mass was estimated by measuring OD550nm using Baush & Lomb® Spectronic 70 spectrophotometer. […] Ethanol was measured by gas chromatography using a Varian® 3400 CX gas chromatograph with 1-propanol as an internal standard.
(§7) Tables 1, 3, and 5 show time to completion of fermentation, ethanol production, and volumetric productivity of the fermentation for all concentrations of the compound and the control. Maximum ethanol production is shown in grams/liter (g/L). The ethanol yield is shown in grams of ethanol/grams of added sugar. Maximum volumetric productivity is shown in grams ethanol/(liter)(hour). The average productivity is calculated form the start of fermentation to the completion of fermentation is grams ethanol/(liter)hour).
(§8) Tables 2, 4, and 6 show the initial growth of the cells (OD taken after the first 24 hours of fermentation) and the maximum cell density (the time which culture reaches the maximum OD value).
(§9) Acetaldehyde was added to the fermentation medium at five different concentrations and time points. […] Where two additions are indicated, the first volume was added at the start of fermentation and the second was added after 8 hours of fermentation.

[2] = test system: recombinant Escherichia coli KO11; assay: Batch fermentation of E. coli KO11 in 1% CSL medium and xylose with nutrient additives: ethanol production and cell growth; details: additive 2 g/L unless indicated; for activity at 2000 µg/mL: Escherichia coli
Protocol: as §1, §2
as §3, with “incubation. […]” for “incubation.”
as §5, §6, §7
Tables 2, 4, and 6 show the initial growth of the cells (OD taken after the first 24 hours of fermentation) and the maximum cell density (the time which culture reaches the maximum OD value). […]

[3] = test system: recombinant Escherichia coli KO11; assay: Batch fermentation of E. coli KO11 in Luria broth and xylose with nutrient additives: ethanol production and cell growth; details: LB+xylose
Protocol: as §1, §2, §3, §4, §5, §6, §7, §8, §9

[4] = additive 2 g/L unless indicated

CC(=O)C(=O)O [Pyruvate, pyruvate]
Ethanol Production Maximum ([1]; 1% CSL+glucose): 42.35 g/L
Ethanol yield ([1]; 1% CSL+glucose): 0.436 grams of ethanol/grams of added sugar
Initial Growth (OD @ 24 h) OD ([1]; 1% CSL+glucose): 3.46 OD
Maximum Cell Density OD ([1]; 1% CSL+glucose): 3.83 OD
Volumetric Productivity Average ([1]; 1% CSL+glucose): 0.441 grams ethanol/(liter)(hour)
Volumetric Productivity Maximum ([1]; 1% CSL+glucose): 0.663 grams ethanol/(liter)(hour)
activity at 2000 µg/mL ([1]; 24 h, 1% CSL+glucose, read-out: Initial Growth (OD @ 24 h) % Control): 129%
activity at 2000 µg/mL ([1]; read-out: Ethanol Production Maximum % Control, 1% CSL+glucose): 114%
activity at 2000 µg/mL ([1]; read-out: Volumetric Productivity Average % Control, 1% CSL+glucose): 114%
activity at 2000 µg/mL ([1]; read-out: Volumetric Productivity Maximum % Control, 1% CSL+glucose): 129%
activity at 2000 µg/mL ([1]; 1% CSL+glucose, read-out: Maximum Cell Density % Control): 142%
Ethanol Production Maximum ([2]; 1% CSL+xylose): 44.42 g/L
Ethanol yield ([2]; 1% CSL+xylose): 0.457 grams of ethanol/grams of added sugar
Initial Growth (OD @ 24 h) OD ([2]; 1% CSL+xylose): 4.11 OD
Maximum Cell Density Time ([2]; 1% CSL+xylose): 96 h
Volumetric Productivity Average ([2]; 1% CSL+xylose): 0.617 grams ethanol/(liter)(hour)
Volumetric Productivity Maximum ([2]; 1% CSL+xylose): 0.792 grams ethanol/(liter)(hour)
activity at 2000 µg/mL ([2]; 24 h, 1% CSL+xylose, read-out: Initial Growth (OD @ 24 h) % Control): 201%
activity at 2000 µg/mL ([2]; read-out: Ethanol Production Maximum % Control, 1% CSL+xylose): 148%
activity at 2000 µg/mL ([2]; read-out: Volumetric Productivity Average % Control, 1% CSL+xylose): 197%
activity at 2000 µg/mL ([2]; read-out: Volumetric Productivity Maximum % Control, 1% CSL+xylose): 215%
activity at 2000 µg/mL ([2]; 1% CSL+xylose, read-out: Maximum Cell Density % Control): 238%
Ethanol Production Maximum ([3]; 2 g): 44.35 g/L
Ethanol Production Maximum % Control ([3]; 2 g): 102.96%
Ethanol yield ([3]; 2 g): 0.457 grams of ethanol/grams of added sugar
Initial Growth (OD at 24 h) % Control ([3]; 2 g): 113.09%
Initial Growth (OD at 24 h) OD ([3]; 2 g): 11.30 OD
Maximum Cell Density % Control ([3]; 2 g): 102.29%
Maximum Cell Density OD ([3]; 2 g): 11.30 OD
Maximum Cell Density Time ([3]; 2 g): 24 h
Time to completion ([3]; 2 g): 48 h
Volumetric Productivity Average ([3]; 2 g): 0.924 grams ethanol/(liter)(hour)
Volumetric Productivity Average % Control ([3]; 2 g): 102.96%
Volumetric Productivity Maximum ([3]; 2 g): 1.284 grams ethanol/(liter)(hour)
Volumetric Productivity Maximum % Control ([3]; 2 g): 111.47%
Ethanol Production Maximum ([3]; 4 g): 45.13 g/L
Ethanol Production Maximum % Control ([3]; 4 g): 104.76%
Ethanol yield ([3]; 4 g): 0.465 grams of ethanol/grams of added sugar
Initial Growth (OD at 24 h) % Control ([3]; 4 g): 114.64%
Initial Growth (OD at 24 h) OD ([3]; 4 g): 11.45 OD
Maximum Cell Density % Control ([3]; 4 g): 105.48%
Maximum Cell Density OD ([3]; 4 g): 11.65 OD
Maximum Cell Density Time ([3]; 4 g): 48 h
Time to completion ([3]; 4 g): 48 h
Volumetric Productivity Average ([3]; 4 g): 0.940 grams ethanol/(liter)(hour)
Volumetric Productivity Average % Control ([3]; 4 g): 104.76%
Volumetric Productivity Maximum ([3]; 4 g): 1.166 grams ethanol/(liter)(hour)
Volumetric Productivity Maximum % Control ([3]; 4 g): 101.27%

N[C@@H](CCC(=O)O)C(=O)O [Glutamate, glutamate]
Ethanol Production Maximum ([1]; 1% CSL+glucose): 43.39 g/L
Ethanol Production Maximum % Control ([1]; 1% CSL+glucose): 117.30%
Ethanol yield ([1]; 1% CSL+glucose): 0.447 grams of ethanol/grams of added sugar
Initial Growth (OD @ 24 h) % Control ([1]; 1% CSL+glucose): 107.10%
Initial Growth (OD @ 24 h) OD ([1]; 1% CSL+glucose): 2.86 OD
Maximum Cell Density % Control ([1]; 1% CSL+glucose): 140.94%
Maximum Cell Density OD ([1]; 1% CSL+glucose): 3.79 OD
Maximum Cell Density Time ([1]; 1% CSL+glucose): 72 h
Time to completion ([1]; 1% CSL+glucose): 72 h
Volumetric Productivity Average ([1]; 1% CSL+glucose): 0.603 grams ethanol/(liter)(hour)
Volumetric Productivity Average % Control ([1]; 1% CSL+glucose): 156.40%
Volumetric Productivity Maximum ([1]; 1% CSL+glucose): 0.763 grams ethanol/(liter)(hour)
Volumetric Productivity Maximum % Control ([1]; 1% CSL+glucose): 148.52%
Ethanol Production Maximum ([2]; 1% CSL+xylose): 43.14 g/L
Ethanol Production Maximum % Control ([2]; 1% CSL+xylose): 143.43%
Ethanol yield ([2]; 1% CSL+xylose): 0.444 grams of ethanol/grams of added sugar
Initial Growth (OD @ 24 h) % Control ([2]; 1% CSL+xylose): 180.49%
Initial Growth (OD @ 24 h) OD ([2]; 1% CSL+xylose): 3.69 OD
Maximum Cell Density % Control ([2]; 1% CSL+xylose): 200.16%
Maximum Cell Density OD ([2]; 1% CSL+xylose): 5.04 OD
Maximum Cell Density Time ([2]; 1% CSL+xylose): 96 h
Time to completion ([2]; 1% CSL+xylose): 96 h
Volumetric Productivity Average ([2]; 1% CSL+xylose): 0.449 grams ethanol/(liter)(hour)
Volumetric Productivity Average % Control ([2]; 1% CSL+xylose): 143.43%
Volumetric Productivity Maximum ([2]; 1% CSL+xylose): 0.665 grams ethanol/(liter)(hour)
Volumetric Productivity Maximum % Control ([2]; 1% CSL+xylose): 180.439%
Ethanol Production Maximum [3, 4]: 44.67 g/L
Ethanol Production Maximum % Control [3, 4]: 103.69%
Ethanol yield [3, 4]: 0.460 grams of ethanol/grams of added sugar
Initial Growth (OD at 24 h) % Control [3, 4]: 106.21%
Initial Growth (OD at 24 h) OD [3, 4]: 10.61 OD
Maximum Cell Density % Control [3, 4]: 96.07%
Maximum Cell Density OD [3, 4]: 10.61 OD
Maximum Cell Density Time [3, 4]: 24 h
Time to completion [3, 4]: 48 h
Volumetric Productivity Average [3, 4]: 0.931 grams ethanol/(liter)(hour)
Volumetric Productivity Average % Control [3, 4]: 103.69%
Volumetric Productivity Maximum [3, 4]: 1.328 grams ethanol/(liter)(hour)
Volumetric Productivity Maximum % Control [3, 4]: 115.30%
